Data from US20180020708A1, “GLUCOSYRINGIC ACID ANALOGS AS SWEETNESS PROFILE MODIFIERS” (PepsiCo, Inc., priority 2016, published 2018).

What was measured:
tasters = assay: Human tasting of sweet/flavor modifying ingredient in HFCS solution versus HFCS control; assay type: in vivo
Method: For testing the material as a sweet/flavor modifying ingredient, two samples were prepared: a 4° Brix high-fructose corn syrup (HFCS) control solution and a 4° Brix HFCS solution with a known concentration of test ingredient.
4° Brix HFCS control solution was prepared by adding 50.89 grams of 78.60° Brix HFCS to 1000 g phosphoric acid base which was prepared by adding phosphoric acid dropwise into 1 L of Aquafina Water until pH 3.1 was obtained. pH was measured using a METTLER TOLEDO pH meter.
If any cloudiness persisted, the sample solution was passed through a paper filter. For some low soluble compounds, Branson 2800 Ultra Sonic Bath was used to dissolve the material. Solubility was confirmed by shining a laser pointer through the solution. If no diffraction was observed then it was assumed that the material was soluble.
For each test, 12-16 tasters were presented with these two (2) numbered samples and asked to note the sweet quality differences between the two samples. Tasters were also asked to comment on sweetness onset, sweetness linger, overall sugarlike sweetness and other qualities such as bitter taste, metallic note, astringency, cooling sensation, any offnotes and any associated flavors. Tasters were also asked to assess sample odor differences and provide any descriptions.
Tasters were asked to not to eat at least 1 hour before tasting and rinse with Aquafina water at least 5 times between tasting all samples.
Compound 5 was added at 35 ppm to 4 Brix HFCS in phosphoric acid (as described above). This solution was compared with 4 Brix HFCS in phosphoric acid.

human tasting = assay: Human tasting of GSA with high potency sweeteners such as rebaudioside A; assay type: in vivo; details: pure form
[1] = 35 ppm in 4 Brix HFCS in phosphoric acid (pH 3.1) vs 4 Brix HFCS control

**Q.** `COc1cc(C(=O)O)cc(OC)c1O[C@@H]1O[C@H](CO)[C@@H](O)[C@H](O)[C@H]1O` [Compound 5, Syringic acid 4-O-β-D-glucoside] was tested. Which “overall sugarlike sweetness reported by tasters” value (tasters; [1]) did it give?
**A.** more sugar-like

**Q.** And the “sweetness onset reported by tasters” value (tasters; [1])?
**A.** earlier onset

**Q.** What about the “sweet quality difference reported by tasters” value (tasters; 35 ppm in 4 Brix HFCS in phosphoric acid (pH 3.1) vs 4 Brix HFCS control, majority of 12-16 tasters noted a difference) of the same compound?
**A.** rounder sweetness

**Q.** And the “overall sweetness of nutritive sweetener sweetened beverages” value (tasters; pure form, human tasting, nutritive sweetener e.g. high-fructose corn syrup (HFCS))?
**A.** effective in increasing the overall sweetness

**Q.** And the “sweet quality of sweetened beverages” value (tasters; pure form, human tasting, sweetened beverages)?
**A.** improving the sweet quality

**Q.** And the “bitter, metallic and licorice off-notes of high potency sweeteners” value (human tasting; e.g. 300 ppm solution of Rebaudioside A in phosphate buffer)?
**A.** decreasing bitter, metallic and licorice off-notes

**Q.** What about the “sweetness time-of-onset for high potency sweeteners” value (human tasting; high potency sweeteners such as rebaudioside A) of the same compound?
**A.** decreasing the sweetness time-of-onset
